Measured values published in the OligoGym collection.
Values joined by “and” are separate entries in the source; they are usually repeats but may differ in a detail not shown here. Identical values can stand only once. After the bases stand the sugars from the 5' end (letter, count) and the backbone: PS all phosphorothioate, else s phosphorothioate and o phosphodiester by linkage. Methylation of C is not given here. e = 2'-O-(2-methoxyethyl) (MOE); k = constrained ethyl (cEt); d = 2'-deoxy (DNA)

Molecular target: IRF4
Details: ASO

Sequence | target mRNA inhibition (MM.1R, 1 µM) | target mRNA inhibition (SK-MEL-28, 4 µM) | further results
ACTTTTAGAGAGGAGA (sugars k3 d9 k3 e1, PS) | 36% |  | 
CCATTTAATCTGTCTA (sugars k3 d10 k3, PS) |  | 28% | 
TGAATAGAGGAATGGC (sugars k3 d10 k3, PS) |  | 21% | 
TGGATCTGAATTGTTA (sugars k3 d10 k3, PS) |  | 55% | 
ATATGACGACTTAAGC (sugars k3 d10 k3, PS) |  | 38% | 
GAGAATTCCAAACCTT (sugars k3 d10 k3, PS) | 15% | 76% | target mRNA inhibition (MM.1R, 0.0625 µM): 6%; target mRNA inhibition (MM.1R, 0.074 µM): 1%; target mRNA inhibition (MM.1R, 0.222 µM): 13%; target mRNA inhibition (MM.1R, 0.25 µM): 5%; target mRNA inhibition (MM.1R, 0.666 µM): 38%; target mRNA inhibition (MM.1R, 2 µM): 69%; target mRNA inhibition (MM.1R, 4 µM): 55%
TACTTGGACAGAAGGG (sugars k3 d10 k3, PS) |  | 62% | 
ACACACCAGGTTAAAC (sugars k3 d10 k3, PS) |  | 12% | 
AATTCCATAGAGCCAG (sugars k3 d10 k3, PS) | 18% |  | 
GAGCGGCCGTGGTGAG (sugars k3 d10 k3, PS) |  | 41% | 
CTAAGGAGACAGTAAC (sugars k3 d10 k3, PS) |  | 29% | 
AGTGGAGGTCTTTGGG (sugars k3 d10 k3, PS) |  | 55% | 
TATTTGTTTGCAAGCT (sugars k3 d10 k3, PS) | 30% |  | 
CAGAAGATCTCTACTG (sugars k3 d10 k3, PS) |  | 12% | 
GACCAGCTTTTTCAAA (sugars k3 d10 k3, PS) |  | 38% | 
AGGCACATCAATGTTT (sugars kkdddddddddkekek, PS) | 16% and 19% |  | 
TTTATAGTAGGTAAGA (sugars k3 d10 k3, PS) |  | 6% | 
TTCAGCAGAAAGTGGG (sugars k3 d10 k3, PS) |  | 48% | 
GGGAAAGAGCTTTGGT (sugars k3 d10 k3, PS) |  | 5% | 
TTACACTGGATCTGAA (sugars k3 d10 k3, PS) |  | 38% | 
AGCTTGATAAAGGCTG (sugars kkkdddddddddkeke, PS) | -8% |  | 
CGCCCAGGACCCGGCT (sugars k3 d10 k3, PS) | -1% |  | 
TCTCCAAAGCATAGAG (sugars k3 d10 k3, PS) | -8% |  | 
GATAAGGCACTACTTC (sugars k3 d10 k3, PS) |  | 47% | 
CTCTGACAAGAACTGC (sugars k3 d10 k3, PS) |  | 30% | 

Sequence | target mRNA inhibition (MM.1R, 1 µM) | target mRNA inhibition (SK-MEL-28, 4 µM) | further results
GATTATATACTGGTTG (sugars kkdddddddddekeke, PS) | 46% |  | 
ACCTTATGCTTGGCTC (sugars k3 d10 k3, PS) |  | 31% | 
TACAAAACGGACTGGA (sugars k3 d10 k3, PS) |  | 38% | 
TCACTTGCCGCCGCCT (sugars k3 d10 k3, PS) |  | 49% | 
AAGTGTCTAAAGTCCC (sugars k3 d10 k3, PS) | 50% and 41% |  | 
GGGAATTTCCATTGGA (sugars k3 d10 k3, PS) |  | 44% | 
CAATTTACATCTTACT (sugars k3 d10 k3, PS) |  | 21% | 
GGGATTATATACTGGT (sugars kkdddddddddkdkdk, PS) | 41% |  | 
TTATAGTAGGTAAGAT (sugars k3 d10 k3, PS) |  | 2% | 
CCAACGACAGCATAGC (sugars k3 d10 k3, PS) |  | 76% | 
TAGGAAGCACTGGCAT (sugars k3 d10 k3, PS) |  | 28% | 
GCAAGTCTACAGCCCC (sugars k3 d10 k3, PS) |  |  | target mRNA inhibition (MM.1R, 0.0625 µM): -7%; target mRNA inhibition (MM.1R, 0.25 µM): 7%; target mRNA inhibition (MM.1R, 4 µM): 68%
GAAACAGAGACGCGGT (sugars k3 d10 k3, PS) |  | 1% | 
CGACAGTCCGGTTAGC (sugars k3 d10 k3, PS) |  | 11% | 
AGAGTGGTACACCTCT (sugars k3 d10 k3, PS) |  | 22% | 
TCCACTTTATCAAGAC (sugars k3 d10 k3, PS) |  | 65% | 
CTTCTTTATGCGAAGA (sugars k3 d10 k3, PS) |  | -5% | 
TGGCAGTCTACAGAAC (sugars k3 d10 k3, PS) |  | -22% | 
CGCTACAGCTTCTGCA (sugars k3 d10 k3, PS) |  | 20% | 
ACGACTTAAGCTAAAC (sugars k3 d10 k3, PS) |  | 58% | 
AAGCTTGATAAAGGCT (sugars kkdddddddddkdkdk, PS) | -2% |  | 
TTATGCCATGGACAAG (sugars k3 d10 k3, PS) | 19% |  | 
GTGATAGCTGAGCTGA (sugars kdddddddddkekeke, PS) | 16% |  | 
CTGTAAGGGCTGCTCA (sugars k3 d10 k3, PS) |  | 56% | 
TGGCACAGTCTTTTCG (sugars k3 d10 k3, PS) |  | 28% | 

Sequence | target mRNA inhibition (MM.1R, 1 µM) | target mRNA inhibition (SK-MEL-28, 4 µM) | further results
AAGCTTGATAAAGGCT (sugars k3 d9 k3 e1, PS) | 5% |  | 
AGGCGCGGACGCACGG (sugars k3 d10 k3, PS) |  | 31% | 
ACCGACTCTTTTTTTA (sugars k3 d10 k3, PS) | -2% |  | 
CTGGGCCTTGCCAGTG (sugars k3 d10 k3, PS) |  | -14% | 
CCCTTATTAGACTGAC (sugars k3 d10 k3, PS) |  | 67% | 
AGAGGTGCCTTCTTTA (sugars k3 d10 k3, PS) | 18% |  | 
CCGTGGTGAGCAAACG (sugars k3 d10 k3, PS) |  | 32% | 
CCAATACATATCCATG (sugars k3 d10 k3, PS) |  | 60% | 
ACAATACTGTAAGGGC (sugars k3 d10 k3, PS) |  | 75% and 68% | 
GAGGAAGCATAGAACA (sugars k3 d10 k3, PS) |  | 18% | 
CGTAGTCACGCAATGG (sugars k3 d10 k3, PS) | 15% |  | 
AGGCACATCAATGTTT (sugars kkdddddddddekeke, PS) | 42% and 35% |  | 
AAGGAGTGCAGGAGAG (sugars k3 d10 k3, PS) |  | 13% | 
ACCATATTGGAAACCA (sugars k3 d10 k3, PS) | 3% | 74% | target mRNA inhibition (MM.1R, 0.0625 µM): -12%; target mRNA inhibition (MM.1R, 0.074 µM): -11%; target mRNA inhibition (MM.1R, 0.222 µM): -18%; target mRNA inhibition (MM.1R, 0.25 µM): -6%; target mRNA inhibition (MM.1R, 0.666 µM): -1%; target mRNA inhibition (MM.1R, 2 µM): 13%; target mRNA inhibition (MM.1R, 4 µM): 34%
CTGAGATAGGAAGCAC (sugars k3 d10 k3, PS) |  | 26% | 
CATATTCCAACAGGCG (sugars k3 d10 k3, PS) | -1% |  | 
GAAGCATTTTATCATC (sugars kkdddddddddekeke, PS) | 6% |  | 
ATTTTCACAAGCTGGG (sugars k3 d10 k3, PS) |  | 39% | 
TCAATGGGAATCACAG (sugars k3 d10 k3, PS) |  | 40% | 
AGGTAGTAGACCACAG (sugars k3 d10 k3, PS) |  | 59% | 
GGAACAAAAGGTTCCC (sugars k3 d10 k3, PS) |  | 12% | 
CTGTTACCGATGCTTC (sugars kkddddddddddkeke, PS) | 43% and 37% |  | 
ACGGAAGTTTACACTG (sugars k3 d10 k3, PS) |  | 77% | 
ACCTTTTTTGGCTCCC (sugars k3 d10 k3, PS) |  | 21% | 
